Measurements as given in patent EP0942911B1, “BENZOPYRANOPYRROLE AND BENZOPYRANOPYRIDINE ALPHA-1 ADRENERGIC COMPOUNDS” (Abbott Laboratories, priority 1996, dated 1998).
Where a name gives a salt, the structure may show the parent alone.

Key:
Test in all cases: biochemical
α-1a adrenoreceptor = molecular target: T1, α-1a adrenoreceptor (Bos taurus, UniProt P18130); format: binding, bovine; details: [3H]-prazosin radioligand; cloned receptor in LTK cell membranes; read-out: Radioligand Binding (Ki, nM) 1a (Bovine)
T1 sequence (P18130 1-466): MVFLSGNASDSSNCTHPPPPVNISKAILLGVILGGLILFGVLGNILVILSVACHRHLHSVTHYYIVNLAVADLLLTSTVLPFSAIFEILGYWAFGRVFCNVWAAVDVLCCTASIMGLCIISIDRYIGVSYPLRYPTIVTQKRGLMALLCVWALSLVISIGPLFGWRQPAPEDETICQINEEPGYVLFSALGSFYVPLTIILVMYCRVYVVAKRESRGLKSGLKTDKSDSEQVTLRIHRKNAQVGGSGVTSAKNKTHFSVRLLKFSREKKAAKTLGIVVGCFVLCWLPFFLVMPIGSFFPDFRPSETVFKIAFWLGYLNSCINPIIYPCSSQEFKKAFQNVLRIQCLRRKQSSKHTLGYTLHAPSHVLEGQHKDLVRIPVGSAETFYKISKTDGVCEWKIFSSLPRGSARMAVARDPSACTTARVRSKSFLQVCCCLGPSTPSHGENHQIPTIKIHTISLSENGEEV
Description: (§1) The cDNA clones encoding the α-1 adrenoreceptors (α-1a, α-1b, and α-1d) were obtained from TULCO (Triangle Universities Licensing Consortium, Research Triangle Park, NC) and inserted into the eukaryotic expression vector SnaB30. In this vector, expression of the adrenoreceptor gene is under the transcriptional control of an SV40 early promoter. Positive drug selection is provided by a neomycin-resistance gene. Mouse fibroblast cells (LTK) were transfected with the α1 expression plasmids and grown in Dulbecco's modified Eagle's medium (DMEM) containing 10% fetal calf serum and 30 µM G418. Stable G418-resistant parental lines were generated, with successful expression of adrenoreceptor protein monitored using radioligand binding techniques. Stable single cell clones derived from the parental lines were screened in adrenoreceptor binding assays to identify clones having high adrenoreceptor density. Roller bottle cultures of the cloned lines were used to provide cell membranes for subsequent adrenoreceptor binding characterization studies. A cell line containing the SnaB30 vector expressing the human erythropoietin gene served as a negative control.
(§2) For adrenoreceptor binding assays, large scale membrane preparations were utilized in which 6 million cells were seeded into small (450 cm^2) Corning tissue culture roller bottles. 200 mL of DMEM containing 10% fetal calf serum and 300 µM G418 were added to each roller bottle. A 95% air / 5% CO2 gas mixture (sterile) was injected into each roller bottle prior to sealing. The bottles were then incubated at 37 °C on a roller rack for 5 days. Cells were re-fed with fresh medium after 3 days in culture.
(§3) On the fifth day of culture, growth medium was removed from cells grown in roller bottles, and the cells were washed twice with PBS (Sigma, 120 mM NaCl, 2.7 mM KCl, 10 mM Na2HPO4-NaH2PO4, pH = 7.4). Cells were detached from the roller bottles by incubating for 15 minutes at 37 °C in a Tris-EDTA solution (10 mM Tris, 100 mM NaCl, 1 mM EDTA, pH = 7.4). The cell suspension from each roller bottle was decanted into tared centrifuge tubes and kept on ice. An aliquot of each cell suspension was generally taken for cell counting. Cells were centrifuged at 3000 X G for 5 min at 2-4 °C, washed with PBS and recentrifuged. The supernatant was decanted and the pellet weighed to determine the wet weight of cells. Cells were washed a final time in 40 vol 5 mM Tris-HCl, 5 mM EDTA, pH = 7.7, and centrifuged at 40,000 X G for 10 minutes. Cells were homogenized in 10 mL of 50 mM Tris-HCl, 5 mM EDTA (pH = 7.4) and diluted to 40 mL/tube. Homogenates were centrifuged at 40,000 X G for 10 minutes. The supernatant was decanted and the pellets rehomogenized in 50 mM Tris-HCl (pH = 7.4) and centrifuged as before. The supernatant was decanted and the homogenate resuspended in 6.25 volumes (per gram wet weight) of 50 mM Tris-HCl and aliquots of the pooled homogenates frozen in liquid N2 and stored at -70 °C until the time of assay. Rat submaxillary glands were used for α-1A adrenoreceptors and were prepared essentially as described (Michel, A. D., Loury, D. N. and Whiting, R. L., Brit. J. Pharmacol. 98: 83-889 (1989)).
(§4) Receptor binding assays for α-1 adrenoreceptors were performed essentially as described by Greengrass and Bremner (Eur. J. Pharmacol. 55: 323-326 (1979)). […] Radioactivity was determined by standard liquid scintillation techniques. Data were analyzed as previously described (Hancock, A. A., Kyncl, J. J., Martin, Y. C. and DeBernardis, J. F., J. Receptor Res. 8: 23-46 (1988)).

[1] = molecular target: T2, α-1A adrenoreceptor (rat submaxillary gland) (Rattus norvegicus, UniProt P43140); format: binding; details: [3H]-prazosin radioligand; rat submaxillary gland membranes; read-out: Radioligand Binding (Ki, nM) 1A (Rat)
T2 sequence (P43140 1-466): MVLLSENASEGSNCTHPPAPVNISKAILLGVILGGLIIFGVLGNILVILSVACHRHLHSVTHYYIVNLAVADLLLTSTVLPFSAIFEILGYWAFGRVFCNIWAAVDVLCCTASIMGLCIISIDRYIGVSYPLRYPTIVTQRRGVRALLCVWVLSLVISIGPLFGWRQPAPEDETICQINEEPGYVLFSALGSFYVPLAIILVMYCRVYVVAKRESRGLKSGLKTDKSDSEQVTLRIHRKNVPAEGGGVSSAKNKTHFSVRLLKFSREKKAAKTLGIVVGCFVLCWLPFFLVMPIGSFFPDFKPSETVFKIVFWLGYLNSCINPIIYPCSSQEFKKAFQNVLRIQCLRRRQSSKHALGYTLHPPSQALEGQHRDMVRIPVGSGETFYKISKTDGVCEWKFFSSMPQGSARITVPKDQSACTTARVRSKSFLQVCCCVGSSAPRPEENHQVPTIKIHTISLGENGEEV
Experimental: Additionally, binding affinity against the pharrnacologically defined α-1A adrenoreceptor (rat submaxillary gland) was measured.
as §3, §4

α-1b adrenoreceptor = molecular target: T3, α-1b adrenoreceptor (Mesocricetus auratus, UniProt P18841); format: binding, hamster; details: [3H]-prazosin radioligand; cloned receptor in LTK cell membranes; read-out: Radioligand Binding (Ki, nM) 1b (Hamster)
T3 sequence (P18841 1-515): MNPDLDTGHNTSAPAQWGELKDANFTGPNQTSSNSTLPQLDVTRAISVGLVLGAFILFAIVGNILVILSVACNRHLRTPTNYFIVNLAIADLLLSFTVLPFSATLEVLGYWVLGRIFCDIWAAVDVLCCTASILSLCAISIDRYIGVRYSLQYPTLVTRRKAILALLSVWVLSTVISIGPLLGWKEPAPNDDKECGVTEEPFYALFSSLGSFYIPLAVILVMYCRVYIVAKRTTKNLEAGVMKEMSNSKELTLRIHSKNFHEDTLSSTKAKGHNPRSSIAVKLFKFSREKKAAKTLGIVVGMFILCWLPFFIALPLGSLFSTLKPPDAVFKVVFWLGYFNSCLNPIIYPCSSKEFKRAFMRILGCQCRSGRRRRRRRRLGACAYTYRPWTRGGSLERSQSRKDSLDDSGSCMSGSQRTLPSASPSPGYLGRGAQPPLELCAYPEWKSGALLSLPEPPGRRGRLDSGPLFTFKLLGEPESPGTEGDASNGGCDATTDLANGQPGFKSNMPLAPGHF
Description: as §1, §2, §3, §4

α-1d adrenoreceptor = molecular target: T4, α-1d adrenoreceptor (Rattus norvegicus, UniProt P23944); format: binding; details: [3H]-prazosin radioligand; cloned receptor in LTK cell membranes; read-out: Radioligand Binding (Ki, nM) 1d (Rat)
T4 sequence (P23944 1-561): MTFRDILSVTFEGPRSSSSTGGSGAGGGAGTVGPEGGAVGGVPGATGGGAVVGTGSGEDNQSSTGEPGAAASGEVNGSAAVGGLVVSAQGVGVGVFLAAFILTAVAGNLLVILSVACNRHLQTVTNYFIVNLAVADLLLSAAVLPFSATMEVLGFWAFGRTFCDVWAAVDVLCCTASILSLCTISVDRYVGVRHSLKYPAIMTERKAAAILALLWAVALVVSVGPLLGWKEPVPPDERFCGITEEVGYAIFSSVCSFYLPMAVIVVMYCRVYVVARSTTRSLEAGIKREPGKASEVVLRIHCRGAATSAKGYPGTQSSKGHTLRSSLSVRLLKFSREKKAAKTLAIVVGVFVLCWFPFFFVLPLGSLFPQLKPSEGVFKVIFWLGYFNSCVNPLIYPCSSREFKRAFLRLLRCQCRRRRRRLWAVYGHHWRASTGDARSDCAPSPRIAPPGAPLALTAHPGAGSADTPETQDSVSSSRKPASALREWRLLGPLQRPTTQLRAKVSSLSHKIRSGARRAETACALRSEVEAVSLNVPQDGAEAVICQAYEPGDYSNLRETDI
Description: as §1, §2, §3, §4

| Structure (SMILES) | Ki (α-1a adrenoreceptor) [nM] | Ki [1] [nM] | Ki (α-1b adrenoreceptor) [nM] | Ki (α-1d adrenoreceptor) [nM] |
| --- | --- | --- | --- | --- |
| COc1cccc2c1[C@H]1CN(CCCCn3c(=O)[nH]c4c(sc5ncc(-c6ccccc6)nc54)c3=O)C[C@@H]1CO2 [Example 9, 3-[4-((3aR,9bS)-trans-9-Methoxy-1,2,3,3a,4,9b-hexahydro-[1]-benzopyrano[3,4-c]pyrrol-2-yl)butyl]-8-phenyl-pyrazino[2',3':4,5]thieno[3,2-d]pyrimidine-2,4(1H,3H)-dione hydrochloride] | 0.325 | 2.27 | 17.8 | 1.55 |
| COc1cccc2c1[C@H]1CN(CCCCn3c(=O)[nH]c4c(sc5ncc(Cl)nc54)c3=O)C[C@@H]1CO2 [Example 10, 3-[4-((3aR,9bS)-trans-9-Methoxy-1,2,3,3a,4,9b-hexahydro-[1]-benzopyrano[3,4-c]pyrrol-2-yl)butyl]-8-chloro-pyrazino[2',3':4,5]thieno[3,2-d]pyrimidine-2,4(1H,3H)-dione hydrochloride] | 0.406 | 0.662 | 10.4 | 1.6 |
| COCCn1c(=O)n(CCCCN2C[C@@H]3COc4cccc(OC)c4[C@H]3C2)c(=O)c2sc3nccnc3c21 [Example 11, 3-[4-((3aR,9bS)-trans-9-Methoxy-1,2,3,3a,4,9b-hexahydro-[1]-benzopyrano[3,4-c]pyrrol-2-yl)butyl]-1-(2-Methoxyethyl)-pyrazino[2',3':4,5]thieno[3,2-d]pyrimidine-2,4(1H,3H)-dione hydrochloride] | 0.243 | 0.374 | 3.78 | 1.46 |
| COc1cccc2c1[C@H]1CN(CCCCn3c(=O)[nH]c4c(sc5nccnc54)c3=O)C[C@@H]1CO2 [Example 12, 3-[4-((3aR,9bS)-trans-9-Methoxy-1,2,3,3a.4,9b-hexahydro-[1]-benzopyrano[3,4-c]pyrrol-2-yl)butyl]-pyrazino[2',3':4,5]thieno[3,2-d]pyrimidine-2,4(1H,3H)-dione dihydrochloride] | 0.375 | 0.52 | 5.25 | 2.17 |
| COc1cccc2c1[C@@H]1CN(CCCCn3c(=O)[nH]c4c(sc5nccnc54)c3=O)C[C@H]1CO2 [Example 14, 3-[4-((3aS,9bR)-trans-9-Methoxy-1,2,3,3a,4,9b-hexahydro-[1]-benzopyrano[3,4-c]pyrrol-2-yl)butyl]-pyrazino[2',3':4,5]thieno[3,2-d]pyrimidine-2,4(1H,3H)-dione dihydrochloride] | 0.038 | 0.105 | 1.37 | 0.145 |
| COc1cccc2c1[C@@H]1CN(CCCCn3c(=O)[nH]c4c(sc5nccnc54)c3=O)C[C@@H]1CO2 [Example 15, 3-[4-((3aR,9bR)-cis-9-Methoxy-1,2,3,3a,4,9b-hexahydro-[1]-benzopyrano[3,4-c]pyrrol-2-yl)butyl]-pyrazino[2',3':4,5]thieno[3,2-d]pyrimidine-2,4(1H,3H)-dione dihydrochloride] | 0.068 | 0.227 | 4.41 | 0.928 |
| COc1cccc2c1[C@@H]1CN(CCCCn3c(=O)[nH]c4c(sc5ncc(Cl)nc54)c3=O)C[C@@H]1CO2 [Example 16, 3-[4-((3aR,9bR)-cis-9-Methoxy-1,2,3,3a,4,9b-hexahydro-[1]-benzopyrano[3,4-c]pyrrol-2-yl)butyl]-8-chloro-pyrazino[2',3':4,5]thieno[3,2-d]pyrimidine-2,4(1H,3H)-dione hydrochloride] | 0.073 | 0.373 | 8.64 | 0.729 |
| COc1cccc2c1[C@@H]1CN(CCCCn3c(=O)[nH]c4c(sc5c(Cl)ccnc54)c3=O)C[C@H]1CO2 [Example 19, 3-[4-((3aS,9bR)-trans-9-Methoxy-1,2,3,3a,4,9b-hexahydro-[1]-benzopyrano[3,4-c]pyrrol-2-yl)butyl]-6-chloro-pyrido[2',3':4,5]thieno[3,2-d]pyrimidine-2,4(1H,3H)-dione hydrochloride] | 0.025 | 0.059 | 1.13 | 0.108 |
